Experiments:
human pre-adipocytes = assay: Adipocyte differentiation assay using human pre-adipocytes; assay type: cell-based; details: similar to DMSO
full-length hPPARdelta = molecular target: T1, full-length hPPARdelta (Homo sapiens, UniProt Q03181); assay: Transactivation assay with full length human PPAR delta; assay type: cell-based
T1 construct: expressed in transfected cells
T1 sequence (Q03181 1-441): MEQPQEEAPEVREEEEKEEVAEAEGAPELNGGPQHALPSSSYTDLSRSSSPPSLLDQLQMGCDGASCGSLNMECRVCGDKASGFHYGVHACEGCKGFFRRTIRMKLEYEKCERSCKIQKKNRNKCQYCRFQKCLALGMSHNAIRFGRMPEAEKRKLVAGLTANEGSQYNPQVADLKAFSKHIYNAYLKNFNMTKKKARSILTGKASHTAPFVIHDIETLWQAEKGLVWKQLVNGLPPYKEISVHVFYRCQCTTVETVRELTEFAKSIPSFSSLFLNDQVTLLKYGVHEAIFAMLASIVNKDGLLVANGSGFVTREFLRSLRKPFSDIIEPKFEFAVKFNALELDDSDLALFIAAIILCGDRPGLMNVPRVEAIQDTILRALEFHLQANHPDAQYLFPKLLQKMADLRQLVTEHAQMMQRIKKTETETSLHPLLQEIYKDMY

hRXRαLBD = molecular target: T2, hRXRαLBD (Homo sapiens, UniProt P19793); assay: RXR transactivation assay (hRXRαLBD); assay type: cell-based
T2 construct: expressed in transfected cells
T2 sequence (P19793 227-458 limits assumed): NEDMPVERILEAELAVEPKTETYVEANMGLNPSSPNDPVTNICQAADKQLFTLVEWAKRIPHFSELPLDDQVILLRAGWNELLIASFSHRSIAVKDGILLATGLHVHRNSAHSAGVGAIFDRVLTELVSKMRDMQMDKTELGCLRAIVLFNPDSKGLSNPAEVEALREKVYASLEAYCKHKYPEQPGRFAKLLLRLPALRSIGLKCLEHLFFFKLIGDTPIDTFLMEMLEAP
Procedure: This example describes a retinoic acid X receptor transactivation assay.
Compounds are tested for their ability to transactivate RXR essentially as described in Example 1.

[1] = system: human cervical carcinoma cell line (HeLa); assay: Inhibition of cancer cell proliferation, HeLa, flow cytometry; assay type: cell-based; details: 48 hours of treatment, read-out: inhibition of proliferation of HeLa cells
Procedure: (§1) A human cervical carcinoma cell line (HeLa) engineered to stably express a recombinant biosensor reporter activity and a non-cancer cell line, HaCaT (Boukamp et al., 1988, J. Cell Biol 106(3):761-771) was used with a Caspa Tag kit (commercially available eg from Chemicon). The detection of proliferation was carried out using a high content screening automated flow cytometer.
(§2) DPD (Substance 1) was diluted to 20 microM in cell culture medium without serum adjusted to 1% DMSO. Detection of cellular events was performed in duplicate in 96-well plates after 48 hours of treatment in the FL2 (dilution of a proliferative marker) channels of a HTS flow cytometer (FACS Calibur HTS, Becton Dickenson). At day 1, cells were seeded in 96 well plates. Cells were treated with DPD and the appropriate controls on day 2 and analysis was carried out on day 4.

HaCaT = assay: Proliferation of non-cancer cell line HaCaT, flow cytometry; assay type: cell-based; details: 20 microM, 48 hours of treatment
Procedure: as §1, §2

mPPARalphaLBD = molecular target: T3, mPPARalphaLBD (Mus musculus, UniProt P23204); assay: PPARalpha transactivation assay (mPPARalphaLBD); assay type: cell-based
T3 construct: expressed in transfected cells
T3 sequence (P23204 239-466 limits assumed): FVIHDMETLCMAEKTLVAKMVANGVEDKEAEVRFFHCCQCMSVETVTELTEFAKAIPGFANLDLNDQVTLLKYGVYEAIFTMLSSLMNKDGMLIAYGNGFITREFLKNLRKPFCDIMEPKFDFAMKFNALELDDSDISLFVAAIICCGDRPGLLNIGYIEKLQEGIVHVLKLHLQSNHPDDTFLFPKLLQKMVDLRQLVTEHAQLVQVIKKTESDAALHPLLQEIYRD
Procedure: This example describes a transactivation assay for determining PPARalpha modulating activity.
DPD and other ligands are tested for their ability to transactivate PPAR alpha essentially as described in Example 1.

3T3-L1 / MEFs = assay: Adipocyte differentiation assay, induction, Oil Red O staining; assay type: cell-based, mouse; details: induction assay, Oil Red O
Procedure: This example describes an assay for determining adipocyte differention. Compounds are tested to see whether they induce adipocyte differentiation and also to see whether they inhibit adipocyte differention.
MEFs were grown in AmnioMax basal medium (Gibco) supplemented with 7.5% Amniomax supplement C-100 (Gibco), 7.5% Fetal Bovine Serum (FBS), 2 mM Glutamine, 62.5 μg/ml penicillin and 100 μg/ml Streptomycin (growth medium). At confluence, MEFs were induced to differentiation in growth medium with the addition of 1 microM dexamethasone (Sigma) 0.5 mM isobutylmethylxanthine (Sigma), 5 microg/ml insulin (Sigma) and 10 microM test compound dissolved in DMSO or DMSO alone. Medium was subsequently renewed every 48 hrs with growth media supplemented with 5 microg/ml Insulin and ligand or DMSO.
Briefly, to test compounds as inducers of adipocyte differentiation, 3T3-L1 are grown to confluence in DMEM with 10% Calf serum (CS), typically in 24 well dishes. At 2 days post confluence (day 0), cells are induced to differentiate with DMEM supplemented with 10% fetal bovine serum (FBS), 1 μM dexamethasone and the test compound ([…], 1 and 10 microM). BRL49653 (1.0 μM dissolved in 100% Me2SO) is used as a positive control. After 48 h, the cells are re-fed with DMEM containing 10% FBS supplemented with the test compound or the positive control. From day 4, cells are grown in DMEM with 10% FBS and are changed every second day until day 8. At day 8, cells are stained with Oil Red O as described below.
Cells cultured as described above are used for Oil Red staining. Dishes are washed in PBS and cells were fixed in 3.7% paraformaldehyde for 1 h and stained with oil red O as described in (Hansen et al 1999). Oil red O solution stock solution is prepared by dissolving 0.5 g of Oil Red O (Sigma) in 100 ml of isopropanol. Oil re O working solution is prepared by diluting a stock solution with water (6:4) followed by filtration.
Table II summarizes results obtained with different analogs of DPD (SN1), “0” representing similar results to DPD, “−1” representing even less adipocyte differentiation, “+1” representing more adipocyte differentiation (both relative to DPD) and “−” meaning not assayed.

O=C(O)CC/C=C\C[C@@H]1CO[C@H](c2ccccc2Cl)O[C@@H]1c1ccccc1O (racemic) [SN1, 4-(Z)-6-(2-o-chlorophenyl-4-o-hydroxyphenyl-1,3-dioxan-cis-5-yl) hexenoic acid]
red staining in human pre-adipocytes (human pre-adipocytes): very little red staining
activation of full-length hPPARdelta (full-length hPPARdelta): no activation was seen
increase of RXR transactivation (hRXRαLBD): no transactivation
inhibition at 20 µM [1]: 90%
effect on the non-cancer cell line HaCaT (HaCaT): no effect
increase of PPAR alpha transactivation (mPPARalphaLBD): no transactivation
induction of adipocyte differentiation (red staining), in words (3T3-L1 / MEFs): very little red staining
